The text below walks through data of patent US20210060006A1, “COMPOSITIONS AND METHODS FOR TREATING GLIOBLASTOMA BY MODULATING A MGMT ENHANCER” (The Trustees of Columbia University in the City of New York, priority 2018, published 2021).

In data set [1] the test system is MGMT. Particulars: combination with TMZ compared to TMZ alone; cited from earlier work.
The test system of data set [2] is SKMG3 parental cells and enhancer deletion clones. Nature of the data set: Clonogenic assay of TMZ sensitivity. The format is cell-based, human. To be noted: for IC50: Homo sapiens. The procedure:
Cell viability was determined using clonogenic assay.
FIG. 5F is a summary of TMZ IC50 in SKMG3 clones with or without O6BG pre-treatment.
Clonogenic assays were performed to assess the effect of disrupted enhancer on TMZ sensitivity. Briefly, SKMG3 parental cells and enhancer deletion clones were plated in 6 wells plates (250 cells/well), treated with graded concentration of TMZ in presence or absence of O6BG and were cultured for 2 weeks. Colonies were fixed and stained with crystal violet (0.005% (w/v) Crystal violet, 25% (v/v) Methanol). Colonies with >50 cells were manually counted, IC50 calculated by GraphPad Prism 7 using multiparametric nonlinear regression model.

Data set [3] relates to MGMT. To be noted: SAHA in combination with TMZ; cited from earlier work.

As to `Nc1nc(OCc2ccccc2)c2nc[nH]c2n1` [O6BG, O6-benzylguanine], in data set [1], the clinical benefit entry is on record as “no clinical benefit”, the hematologic toxicities entry is reported as “enhanced hematologic toxicities” and the therapeutic window entry is reported as “reduced therapeutic window”. Further, in data set [2] (group pre-treated with 10 μM O6BG 1 h prior to temozolomide), the “TMZ sensitizing effect of enhancer deletion” value is given as “not observed”.

As to `O=C(CCCCCCC(=O)Nc1ccccc1)NO` [SAHA], the MGMT expression result in data set [3] is reported as “promotes elevation of MGMT expression”.

In the case of `Cn1nnc2c(C(N)=O)ncn2c1=O` [TMZ, temozolomide], the IC50 in data set [2] (K-M enhancer deleted (3.3 kb) SKMG3 clones) was under 10 µM; in data set [2] (parental SKMG3 lines and wild type control clone), over 100 µM.

For orientation: IC50 means the concentration that inhibits the measured activity by half.
